Measured values: patent publication US5861424A, “Composition and method for treating cancer” (priority 1995, dated 1999)
Read-outs that look alike come from different tables or passages of the source.

How the values were obtained:
[1] = test system: normal monkey kidney epithelial cell line CV-1; test: Colony formation assay, normal monkey kidney epithelial cells CV-1; details: for IC50: Primates, Epithelial cell;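 on all read-outs here: colonies visualized by crystal violet staining, incubation at 37 °C, IC50 relative to untreated wells given culture medium alone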
human melanoma LOX = test: Survival of nude mice implanted with human melanoma LOX; type: in vivo, human melanoma in male athymic Swiss nu/nu mouse; details: Mus musculus, ip, 24 h, read-out: T/C (survival)
Description: LOX, a human melanoma cell line, grown subcutaneously in nude mice was excised, trypsinized to yield a single cell suspension using a metal grid with a […]. Red blood cells were lysed by incubation with 0.17 molar ammonium chloride at 4° C. for 20 minutes. Five million viable trypan blue negative cells made up in 0.1 ml of Dulbecco modified Eagles' medium (DME) were injected into the peritoneal cavity of a male athymic Swiss nu/nu mouse. The control group and each treatment group consisted of 5 to 10 mice. Treatment was commenced the following day by intraperitoneal injection.
Ten control mice received 0.25 ml of 2% dextrose on those days the treated groups were injected with the compounds of this invention. The compounds of the General Formulas. (1) to (6) used in this invention which were tested are listed in Table VIII below and the results obtained are shown in Table VIII and FIG. 1-6 of the accompanying drawings. T/C is the ratio, expressed as a percentage of the mean survival age of the treated group to the mean survival age of the untreated control group.

[2] = test system: human colon carcinoma cell line CX-1; test: Colony formation assay, human colon carcinoma CX-1; type: cell-based; details: Table III; for IC50: Homo sapiens, Colon carcinoma cell, read-out: CX-1 (IC50); for IC50 / CX-1 (IC50): 24 h treatment, colony count after 7 to 10 days; for Selectivity (ratio of IC50 for CV-1 and IC50 for CX-1): CV-1/CX-1
[3] = test system: human melanoma LOX cell line; test: Colony formation assay, human melanoma LOX; type: cell-based; details: Table V; for IC50: Homo sapiens, LOX, 24 h, read-out: LOX (IC50); for Selectivity (CV-1 IC50 / LOX IC50): CV-1/LOX
From the text: (§1) The control received culture media only.

[4] = test system: human bladder carcinoma EJ cell line; test: Colony formation assay, human bladder carcinoma EJ; type: cell-based; details: Table IV
From the text: as §1

[5] = test system: human pancreatic carcinoma CRL 1420 cell line; test: Colony formation assay, human pancreatic carcinoma CRL 1420; type: cell-based; details: Table VII; for IC50: Homo sapiens, 24 h; for Selectivity (CV-1 IC50 / CRL-1420 IC50): CV-1/CRL-1420
From the text: as §1
The Selectivity values, CRL 1420 values and CV-1 values for compounds of the General Formulas (1) to (6) used in the present invention are shown in Table VII below.

[6] = test system: human colon carcinoma CX-1; test: Anti-human colon carcinoma CX-1 activity in nude mice, tumor inhibition; type: in vivo, human colon carcinoma in Swiss nu/nu mice; details: Mus musculus, ip, 24 h, 20 mg/kg
From the text: Human colon carcinoma cell line CX-1 has been chosen by the National Cancer Institute as a mode for cancer drug screening (NCI Protocol 3C2H2). It was established in culture from the surgical explant of the primary colon adenocarcinoma of a person with no previous chemotherapy. The cultured CX-1 cells, upon subcutaneous injection, can grow readily in nude mice as a moderately- to well-differentiated human colon carcinoma. CEA is expressed as expected for differentiated colon carcinoma cells. Abundant keratin, consistent with epithelial origin, is present. Increased uptake and prolonged retention of delocalized lipophilic cations are observed.
Swiss nu/nu mice obtained from Taconic Farm were housed in a pathogen-free environment. Tumors subcutaneously passaged in nude mice were excised under sterile conditions and converted to a single cell suspension using a metal grid with a 0.4 mm mesh. Red blood cells were lysed by incubation with 0.17M ammonium chloride at 4° C. for 20 minutes. Cells were scored for viability with trypan blue. Viable CX-1 cells (2.5 million) made up in 0.1 ml of cell culture medium were injected subcutaneously into each nude mouse. The mice were randomly allocated into a control group (five mice) and a treatment group (five mice per group). The drug treatment was commenced the next day. Doses and schedules were developed empirically and were based mainly on information on LD50 and LD10 obtained from preliminary toxicity studies. The control group received an equivalent volume of hydroxylpropyl-β-cyclodextrin-5% glucose solution.
The pharmaceutical compositions tested comprised solutions in 5% glucose subjected to sonication at concentrations of 1 mg/ml. Those compounds which were not completely dissolved by this procedure were dissolved in hydroxypropyl-β-cyclodextrin using the following method. Hydroxypropyl-β-cyclodextrin (45 g) was mixed with 100 ml of sterilized, double distilled water and stirred for four hours. Each of the compounds to be tested (20 mg) was mixed with 10 ml of hydroxypropyl-β-cyclodextrin solution and sonicated for 60 minutes in the dark. This solution was then diluted in 5% glucose to yield a final compound concentration of 0.5 mg/ml, and further sonicated for 60 minutes in the dark to assure that the compound was completely dissolved.
When the growth of tumors in the control group reached the exponential phase and the size of the tumor was palpable (usually 20 to 30 days after tumor implantation), the experiments were terminated. Tumors in each mouse were excised and weighed using an analytical balance. Total tumor weight in each group from five mice was calculated. Per cent tumor inhibition between the treated group and the control group was then calculated for each group.

[7] = test system: human breast carcinoma MCF-7 cell line; test: Colony formation assay, human breast carcinoma MCF-7; type: cell-based; details: Table VI
From the text: as §1
The Selectivity values, MCF-7 values and CV-1 values for compounds of the General Formulas (1) to (6) used in the present invention are shown in Table VI below.

[8] = read-out: CV-1 (IC50), Table III, 24 h treatment, colony count after 7 to 10 days
[9] = read-out: CV-1 (IC50), Table VII
[10] = Table III, 24 h treatment, colony count after 7 to 10 days
[11] = i.p. on day 1, 4, 7, 11, 15, 18
[12] = i.p. on day 1, 7**, 9** (**10 mg/kg)

## CCN1C(=CC=c2sc(=Cc3sc4c5ccccc5ccc4[n+]3CC)n(CC)c2=O)Sc2ccc3ccccc3c21 [Compound 31]
[1]; [8]
  IC50: 10 µg/mL
Human melanoma LOX; 40 mg/kg, i.p. on day 1, 2, 3, 4, 8, 10, 17
  response vs control in vivo at 40 mg/kg: 169%
[2]
  IC50: 0.025 µg/mL
  Selectivity (ratio of IC50 for CV-1 and IC50 for CX-1): 400

## CCN1C(=CC=c2sc(=Cc3sc4c5ccccc5ccc4[n+]3CC)n(CC)c2=O)Sc2ccc3ccccc3c21 [Compound 51]
[3]; 24 h treatment
  IC50: 0.09 µg/mL
[3]
  Selectivity (CV-1 IC50 / LOX IC50): 222
Human melanoma LOX; i.p. on day 1, 2, 3, 6, 9, 13
  response vs control in vivo at 20 mg/kg: 174%
[2]
  CX-1 (IC50): 0.03 µg/mL
  Selectivity (ratio of IC50 for CV-1 and IC50 for CX-1): 333
[4]; Homo sapiens, EJ, 24 h, 24 h treatment, read-out: EJ (IC50)
  IC50: 0.04 µg/mL
[5]; 24 h treatment
  IC50: 0.07 µg/mL
[5]
  Selectivity (CV-1 IC50 / CRL-1420 IC50): 286

## CCN1C(=CC=c2sc(=Cc3scc[n+]3CC)n(CC)c2=O)Sc2ccc3ccccc3c21 [Compound 41]
[1]; [9]
  IC50: 1.5 µg/mL
Human melanoma LOX; i.p. on day 1, 5, 9
  response vs control in vivo at 5 mg/kg: 128%
[5]; 24 h treatment
  IC50: 0.05 µg/mL
[5]
  Selectivity (CV-1 IC50 / CRL-1420 IC50): 120

## C=CCn1c(=Cc2cc[n+](CC)c3ccccc23)sc(=CC=C2C=Cc3ccccc3N2CC)c1=O [Compound 249]
[1]; [8]
  IC50: 5 µg/mL
[1]; [9]
  IC50: 5 µg/mL
[6]; i.p. on day 1, 5, 7, 9
  inhibition in vivo at 20 mg/kg: 41.1%
[2]
  IC50: 0.05 µg/mL
  Selectivity (ratio of IC50 for CV-1 and IC50 for CX-1): 100
[5]; 24 h treatment
  IC50: 0.045 µg/mL
[5]
  Selectivity (CV-1 IC50 / CRL-1420 IC50): 111

## CCC[n+]1c(C=c2sc(=CC=C3Sc4c(ccc5ccccc45)N3CC)c(=O)n2CC)sc2cc(C)c(OCC)cc21 [Compound 6]
[1]; read-out: CV-1 (IC50)
  IC50: 10 µg/mL
Human melanoma LOX; i.p. on day 1, 3, 5, 7
  response vs control in vivo at 5 mg/kg: 126%
[2]
  IC50: 0.025 µg/mL
  Selectivity (ratio of IC50 for CV-1 and IC50 for CX-1): 400

## CCN1C(=CC=c2sc(=Cc3sc4c5ccccc5ccc4[n+]3C)n(CC)c2=O)Sc2ccc3ccccc3c21 [Compound 52]
[3]; 24 h treatment
  LOX (IC50): 0.08 µg/mL
[3]
  Selectivity (CV-1 IC50 / LOX IC50): > 250
[1]; [10]
  CV-1 (IC50): > 20 µg/mL
[1]; Table IV
  CV-1 (IC50): > 20 µg/mL
[1]; Table V
  CV-1 (IC50): > 20 µg/mL
[1]; Table VI
  CV-1 (IC50): > 20 µg/mL
[1]; Table VII
  CV-1 (IC50): > 20 µg/mL
Human melanoma LOX; i.p. on day 1, 2, 3, 6, 9
  response vs control in vivo at 10 mg/kg: 168%
[2]
  CX-1 (IC50): 0.03 µg/mL
  Selectivity (ratio of IC50 for CV-1 and IC50 for CX-1): > 667
[4]; 24 h treatment
  EJ (IC50): 0.05 µg/mL
[4]; CV-1/EJ
  Selectivity (CV-1 IC50 / EJ IC50): > 400
[5]; 24 h treatment
  CRL-1420 (IC50): 0.06 µg/mL
[5]
  Selectivity (CV-1 IC50 / CRL-1420 IC50): > 333
[7]; 24 h treatment
  MCF-7 (IC50): 0.03 µg/mL
[7]; CV-1/MCF-7
  Selectivity (CV-1 IC50 / MCF-7 IC50): > 666

## CCn1c(=Cc2sc3c4ccccc4ccc3[n+]2CC)sc(=CC=C2Sc3ccc4ccccc4c3N2C)c1=O [Compound 55]
[6]; [11]
  inhibition in vivo at 20 mg/kg: 55.3%

## CCn1c(=Cc2sc3c4ccccc4ccc3[n+]2C)sc(=CC=C2Sc3ccc4ccccc4c3N2C)c1=O [Compound 44]
[1]; [8]
  IC50: 20 µg/mL
[6]; [11]
  inhibition in vivo at 20 mg/kg: 54.8%
[2]
  IC50: 0.02 µg/mL
  Selectivity (ratio of IC50 for CV-1 and IC50 for CX-1): 1000

## CCN1C(=CC=c2oc(=Cc3sc(-c4ccccc4)c(-c4ccccc4)[n+]3CC)n(CC)c2=O)Oc2ccccc21 [Compound 330]
[1]; [8]
  IC50: 2.5 µg/mL
Human melanoma LOX; i.p. on day 1, 3, 5, 7, 9
  response vs control in vivo at 5 mg/kg: 128%
[2]
  IC50: 0.025 µg/mL
  Selectivity (ratio of IC50 for CV-1 and IC50 for CX-1): 100

## CCN1C(=CC=c2sc(=CC3=[N+](CC)CCS3)n(CC)c2=O)C=Cc2ccccc21 [Compound 244]
Human melanoma LOX; i.p. on day 1, 3, 5, 7, 9
  response vs control in vivo at 10 mg/kg: 153%

## CN1C(=CC=c2sc(=Cc3sc4c5ccccc5ccc4[n+]3C)n(C)c2=O)Sc2ccc3ccccc3c21 [Compound 48]
[1]; [8]
  IC50: 20 µg/mL
[6]; [11]
  inhibition in vivo at 20 mg/kg: 72.4%
[2]
  IC50: 0.005 µg/mL
  Selectivity (ratio of IC50 for CV-1 and IC50 for CX-1): 4000

## CCN1C(C)=CSC1=CC=c1sc(=Cc2sc3ccccc3[n+]2CC)n(CC)c1=O [Compound 96]
[3]; 24 h treatment
  IC50: 0.09 µg/mL
[3]
  Selectivity (CV-1 IC50 / LOX IC50): 222
[1]; read-out: CV-1 (IC50), Table V
  IC50: 20 µg/mL
Human melanoma LOX; 2 mg/kg, i.p. on day 1, 2, 3*, 6*, 9*, 13*, 16* (*4 mg/kg)
  response vs control in vivo at 2 mg/kg: 253%
[2]
  CX-1 (IC50): 0.03 µg/mL
  Selectivity (ratio of IC50 for CV-1 and IC50 for CX-1): 667

## CCN1C(=CC=c2sc(=Cc3sc4c5ccccc5ccc4[n+]3C)n(CC)c2=O)Sc2ccc3ccccc3c21 [Compound 33]
[1]; [8]
  IC50: 20 µg/mL
Human melanoma LOX; i.p. on day 1, 2, 3, 4, 5, 7, 8, 9, 10, 11
  response vs control in vivo at 10 mg/kg: 173%
[2]
  IC50: 0.02 µg/mL
  Selectivity (ratio of IC50 for CV-1 and IC50 for CX-1): 1000

## C=CCn1c(=Cc2cc[n+](CC)c3ccccc23)sc(=CC=C2C=CN(CC)c3ccccc32)c1=O [Compound 304]
[6]; [12]
  inhibition in vivo at 20 mg/kg: 65.9%

## CCN1C(=CC=c2sc(=Cc3sc4c5ccccc5ccc4[n+]3CCO)n(CC)c2=O)Sc2ccc3ccccc3c21 [Compound 53]
[1]; [8]
  IC50: 20 µg/mL
[1]; [9]
  IC50: 20 µg/mL
Human melanoma LOX; i.p. on day 1, 3, 6, 9, 13, 16
  response vs control in vivo at 20 mg/kg: 222%
[2]
  IC50: 0.05 µg/mL
  Selectivity (ratio of IC50 for CV-1 and IC50 for CX-1): 400
[5]; 24 h treatment
  IC50: 0.18 µg/mL
[5]
  Selectivity (CV-1 IC50 / CRL-1420 IC50): 111

## CCN1CCSC1=CC=c1sc(=Cc2sc3c4ccccc4ccc3[n+]2CC)n(CC)c1=O [Compound 150]
[1]; [10]
  CV-1 (IC50): 1 µg/mL
Human melanoma LOX; i.p. on day 1, 2, 9, 13, 16
  response vs control in vivo at 5 mg/kg: 216%
[2]
  CX-1 (IC50): 0.01 µg/mL
  Selectivity (ratio of IC50 for CV-1 and IC50 for CX-1): 100

## CCn1c(=Cc2sc(-c3ccccc3)c(-c3ccccc3)[n+]2CC)sc(=CC=C2N(C)c3ccccc3C2(C)C)c1=O [Compound 204]
Human melanoma LOX; i.p. on day 1, 4, 7, 10, 13, 16, 19, 22
  response vs control in vivo at 5 mg/kg: 174%

## CCN1CCSC1=CC=c1sc(=Cc2cc[n+](CC)c3ccccc23)n(CC)c1=O [Compound 146]
[6]; [12]
  inhibition in vivo at 20 mg/kg: 59.3%
